Reference: ChEMBL document CHEMBL5518220, “The Discovery of 7-Isopropoxy-2-(1-methyl-2-oxabicyclo[2.1.1]hexan-4-yl)-N-(6-methylpyrazolo[1,5-a]pyrimidin-3-yl)imidazo[1,2-a]pyrimidine-6-carboxamide (BIO-7488), a Potent, Selective, and CNS-Penetrant IRAK4 Inhibitor for the Treatment of Ischemic Stroke” (J Med Chem, 2024)
The source made the active and inactive calls. No cut-off for these calls is given here.

Columns and labels:
[1] = Metabolic stability in human liver microsomes assessed as intrinsic clearance; assay type: ADME, Microsome; settings: read-out: CLH
MDR1 (P-gp) = assay: Efflux ratio of apparent permeability across basolateral to apical side over apical to basolateral side in MDCK-MDR1 cells at 1 uM incubated for 120 mins by LC-MS/MS analysis; assay type: ADME, cell-based, Canis lupus familiaris; settings: dog
[2] = Metabolic stability in rat liver microsomes assessed as intrinsic clearance; assay type: ADME, Microsome; settings: read-out: CLH
[3] = Unbound clearance in rat at 1 mg/kg, iv by LC-MS/MS analysis; assay type: ADME, organism-based; settings: in vivo
[4] = target: T1, Interleukin-1 receptor-associated kinase 4 (Homo sapiens, UniProt Q9NWZ3)
T1 sequence (Q9NWZ3 whole entry): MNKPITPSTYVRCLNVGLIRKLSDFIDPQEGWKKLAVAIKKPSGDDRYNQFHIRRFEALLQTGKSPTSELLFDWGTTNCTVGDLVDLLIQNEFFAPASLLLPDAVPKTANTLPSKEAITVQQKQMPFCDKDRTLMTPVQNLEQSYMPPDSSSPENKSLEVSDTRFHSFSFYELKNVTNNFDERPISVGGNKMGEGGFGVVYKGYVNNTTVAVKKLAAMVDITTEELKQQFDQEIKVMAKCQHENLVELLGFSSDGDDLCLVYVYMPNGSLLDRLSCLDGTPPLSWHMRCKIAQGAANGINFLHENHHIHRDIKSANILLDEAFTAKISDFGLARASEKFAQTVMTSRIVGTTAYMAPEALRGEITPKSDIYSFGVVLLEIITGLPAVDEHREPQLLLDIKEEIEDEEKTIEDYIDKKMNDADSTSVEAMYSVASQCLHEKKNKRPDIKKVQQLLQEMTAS

[5] = Unbound brain-to-plasma concentration ratio in iv dosed rat measured at 4 to 24 hrs by LC-MS/MS analysis; assay type: ADME, organism-based; settings: brain and plasma, time 4-24 hrs, read-out: K(p,uu,brain)
[6] = Clearance in rat at 1 mg/kg, iv by LC-MS/MS analysis; assay type: ADME, organism-based; settings: in vivo
[7] = Metabolic stability in rat hepatocytes assessed as intrinsic clearance; assay type: ADME, cell-based, Hepatocyte; settings: read-out: CLH
[8] = Metabolic stability in human hepatocytes assessed as intrinsic clearance; assay type: ADME, cell-based, Hepatocyte; settings: read-out: CLH
[9] = Lipophilicity, logD of compound in n-octanol and aqueous buffer at pH 7.4 by RP-HPLC method; assay type: physicochemical
[10] = target: T2, Voltage-gated inwardly rectifying potassium channel KCNH2 (Homo sapiens, UniProt Q12809); assay: Inhibition of hERG by patch clamp method; assay type: toxicity
Mus musculus [11] = assay: Inhibition of IL-6 production in male C57BL/6 mouse model of distal hypoxic-middle cerebral artery occlusion stroke assessed as reduction in IL-6 level in CNS at 10 to 30 mg/kg, po qd administered via oral gavage for 3 days starting from 1 hr 15 mins post cauterization by ELISA; assay type: functional, organism-based; settings: dose 10-30 mg/kg, time 3.0 day
Mus musculus [12] = assay: Inhibition of LPS-induced TNF-alpha production in po dosed female C57BL/6 mouse assessed as reduction in TNF-alpha level in plasma administered via oral gavage for 60 mins followed by LPS stimulation at 0.5 mg/kg, ip measured after 90 mins by ELISA; assay type: functional, organism-based
Mus musculus [13] = assay: Inhibition of IL-1beta production in male C57BL/6 mouse model of distal hypoxic-middle cerebral artery occlusion stroke assessed as reduction in IL-1beta level in brain at 10 to 30 mg/kg, po qd administered via oral gavage for 3 to 7 days starting from 1 hr 15 mins post cauterization by ELISA; assay type: functional, organism-based; settings: dose 10-30 mg/kg, time 3-7 day
Mus musculus [14] = assay: Inhibition of IL-6 production in male C57BL/6 mouse model of distal hypoxic-middle cerebral artery occlusion stroke assessed as reduction in IL-6 level in brain at 10 to 30 mg/kg, po qd administered via oral gavage for 3 to 7 days starting from 1 hr 15 mins post cauterization by ELISA; assay type: functional, organism-based; settings: dose 10-30 mg/kg, time 3-7 day
Mus musculus [15] = assay: Inhibition of LPS-induced TNF-alpha production in po dosed female C57BL/6 mouse assessed as reduction in TNF-alpha level in brain administered via oral gavage for 60 mins followed by LPS stimulation at 0.6 ug, icv measured after 120 mins by ELISA; assay type: functional, organism-based; settings: dose 10-30 mg/kg, time 180.0 min
Mus musculus [16] = assay: Inhibition of TNF-alpha production in male C57BL/6 mouse model of distal hypoxic-middle cerebral artery occlusion stroke assessed as reduction in TNF-alpha level in brain at 10 to 30 mg/kg, po qd administered via oral gavage for 3 days starting from 1 hr 15 mins post cauterization by ELISA; assay type: functional, organism-based; settings: dose 10-30 mg/kg, time 3.0 day
Mus musculus [17] = assay: Inhibition of LPS-induced IL-6 production in po dosed female C57BL/6 mouse assessed as reduction in IL-6 level in brain administered via oral gavage for 60 mins followed by LPS stimulation at 0.6 ug, icv measured after 120 mins by ELISA; assay type: functional, organism-based; settings: dose 10-30 mg/kg, time 180.0 min
[18] = Inhibition of […] induced IL-1beta production in human whole blood preincubated for 1 hr followed by R848 stimulation and measured after 4 hrs by MSD assay; assay type: functional, tissue-based
Mus musculus [19] = assay: Inhibition of LPS-induced IL-1beta production in po dosed female C57BL/6 mouse assessed as reduction in IL-1beta level in brain administered via oral gavage for 60 mins followed by LPS stimulation at 0.6 ug, icv measured after 120 mins by ELISA; assay type: functional, organism-based; settings: dose 10-30 mg/kg, time 180.0 min
[20] = Free drug level in male C57BL/6 mouse brain at 30 mg/kg, po qd measured on 3 to 7 days; assay type: ADME, organism-based; settings: in vivo, time 3-7 day
Mus musculus [21] = assay: Inhibition of LPS-induced IL-1beta production in po dosed female C57BL/6 mouse assessed as reduction in IL-1beta level in plasma administered via oral gavage for 60 mins followed by LPS stimulation at 0.5 mg/kg, ip measured after 90 mins by ELISA; assay type: functional, organism-based
Mus musculus [22] = assay: Inhibition of TNF-alpha production in male C57BL/6 mouse model of distal hypoxic-middle cerebral artery occlusion stroke assessed as reduction in TNF-alpha level in CNS at 10 to 30 mg/kg, po qd administered via oral gavage for 3 to 7 days starting from 1 hr 15 mins post cauterization by ELISA; assay type: functional, organism-based; settings: dose 10-30 mg/kg, time 3-7 day
Mus musculus [23] = assay: Inhibition of LPS-induced IL-6 production in po dosed female C57BL/6 mouse assessed as reduction in IL-6 level in plasma administered via oral gavage for 60 mins followed by LPS stimulation at 0.5 mg/kg, ip measured after 90 mins by ELISA; assay type: functional, organism-based
[24] = target: T2, Voltage-gated inwardly rectifying potassium channel KCNH2; assay: Displacement of [35S]-MK499 from hERG by […]; assay type: toxicity

T2 sequence (Q12809 whole entry): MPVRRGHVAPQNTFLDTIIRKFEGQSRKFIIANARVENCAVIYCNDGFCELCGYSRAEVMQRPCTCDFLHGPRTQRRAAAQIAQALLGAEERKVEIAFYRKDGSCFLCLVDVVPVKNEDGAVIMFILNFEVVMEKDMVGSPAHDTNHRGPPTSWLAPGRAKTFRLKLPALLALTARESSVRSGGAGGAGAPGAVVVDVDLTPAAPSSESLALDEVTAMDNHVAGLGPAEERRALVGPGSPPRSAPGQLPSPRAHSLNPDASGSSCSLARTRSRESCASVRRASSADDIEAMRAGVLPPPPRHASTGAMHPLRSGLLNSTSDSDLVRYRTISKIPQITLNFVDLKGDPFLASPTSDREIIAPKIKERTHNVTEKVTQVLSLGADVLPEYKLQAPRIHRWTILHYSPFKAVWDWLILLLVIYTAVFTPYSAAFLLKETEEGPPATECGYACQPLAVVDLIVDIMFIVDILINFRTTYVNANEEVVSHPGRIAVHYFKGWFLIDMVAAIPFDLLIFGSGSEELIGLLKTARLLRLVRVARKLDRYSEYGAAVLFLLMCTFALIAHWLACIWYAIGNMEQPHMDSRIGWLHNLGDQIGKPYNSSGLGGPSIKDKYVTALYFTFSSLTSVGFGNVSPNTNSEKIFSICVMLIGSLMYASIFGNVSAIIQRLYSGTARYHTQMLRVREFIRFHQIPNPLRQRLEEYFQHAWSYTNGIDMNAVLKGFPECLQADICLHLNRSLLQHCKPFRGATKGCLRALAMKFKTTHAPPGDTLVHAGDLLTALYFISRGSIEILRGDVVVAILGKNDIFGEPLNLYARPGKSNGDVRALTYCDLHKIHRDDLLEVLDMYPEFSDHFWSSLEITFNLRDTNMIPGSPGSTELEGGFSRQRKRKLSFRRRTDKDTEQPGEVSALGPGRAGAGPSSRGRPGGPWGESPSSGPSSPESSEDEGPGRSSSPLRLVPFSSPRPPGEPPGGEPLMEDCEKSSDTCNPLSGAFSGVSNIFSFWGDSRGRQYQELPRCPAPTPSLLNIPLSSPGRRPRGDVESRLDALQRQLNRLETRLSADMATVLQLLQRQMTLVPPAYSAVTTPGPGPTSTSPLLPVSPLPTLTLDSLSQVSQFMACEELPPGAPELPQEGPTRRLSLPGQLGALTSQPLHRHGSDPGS

| Structure (SMILES) | CLint scaled [1] | efflux ratio at 2 h, 1 µM (MDR1 (P-gp)) | CLint scaled [2] | CL free [3] | IC50 [4] | Kp uu [5] | clearance [6] | CLint scaled [7] | CLint scaled [8] | also measured |
| --- | --- | --- | --- | --- | --- | --- | --- | --- | --- | --- |
| CCOc1cc2nc(C3(OC)CC3)cn2cc1NC(=O)c1cccc(C(F)F)n1 | 68 mL/min/kg | 0.7 | 198 mL/min/kg | – | – | – | – | – | – | – |
| CCOc1cc2nc(C3CCOCC3)cn2cc1NC(=O)c1cccc(C(F)F)n1 | 27 mL/min/kg | 2 | 40 mL/min/kg | 1738 mL/min/kg | 0.6 nM | 0.3 | 57 mL/min/kg | 63 mL/min/kg | 45 mL/min/kg | – |
| CCOc1cc2nc(CCOC)cn2cc1NC(=O)c1cccc(C(F)F)n1 | 32 mL/min/kg | 0.5 | 240 mL/min/kg | – | – | – | – | – | – | – |
| CC(C)Oc1nc2nc(C34COC(C)(C3)C4)cn2cc1C(=O)Nc1cnn2ccncc12 | – | – | – | – | 16.3 nM | – | – | – | – | – |
| CCOc1cc2nc(CCCOC)cn2cc1NC(=O)c1cccc(C(F)F)n1 | 55 mL/min/kg | 1.1 | 266 mL/min/kg | – | 1.4 nM | – | – | – | – | – |
| CC(C)Oc1nc2nc(C34COC(C)(C3)C4)cn2cc1C(=O)Nc1cnn2cccnc12 | – | – | – | 64 mL/min/kg | 0.4 nM | 0.2 | 10 mL/min/kg | – | – | logD [9]: 2.1; IC50 [10]: 19700 nM |
| CC(C)Oc1cc2nc(C34COC(C)(C3)C4)cn2cc1C(=O)Nc1cccc(C(F)F)n1 | < 5 mL/min/kg | – | 11 mL/min/kg | 563 mL/min/kg | 0.17 nM | 0.4 | 15 mL/min/kg | < 3 mL/min/kg | 5.3 mL/min/kg | logD [9]: 4.4; inhibition (Mus musculus [11]): inactive; inhibition (Mus musculus [12]): Dose-Dependent Effect; inhibition (Mus musculus [13]): Active; inhibition (Mus musculus [14]): Active; inhibition (Mus musculus [15]): Dose-Dependent Effect; inhibition (Mus musculus [16]): inactive; inhibition (Mus musculus [17]): Dose-Dependent Effect; IC50 ([18]; Homo sapiens, Blood): 306 nM; fIC50 ([18]; time 5 hrs): 6 nM; inhibition (Mus musculus [19]): Dose-Dependent Effect; Drug uptake(free) [20]: 100 nM; IC50 [10]: 2200 nM; inhibition (Mus musculus [21]): Dose-Dependent Effect; inhibition (Mus musculus [22]): inactive; inhibition (Mus musculus [23]): Dose-Dependent Effect |
| CC(C)Oc1nc2nc(C34COC(C)(C3)C4)cn2cc1C(=O)Nc1cnn2cc(F)cnc12 | – | – | – | 67 mL/min/kg | – | 0.2 | 7.2 mL/min/kg | – | – | logD [9]: 2.4; IC50 [10]: 18000 nM |
| CCOc1cc2nc(C34COC(C)(C3)C4)cn2cc1NC(=O)c1cccc(C(F)F)n1 | 5.4 mL/min/kg | 1.4 | < 11 mL/min/kg | 1388 mL/min/kg | 0.2 nM | 0.4 | 37 mL/min/kg | 11 mL/min/kg | 19 mL/min/kg | IC50 [10]: 780 nM |
| CC(C)Oc1cc2nc(C3CCOCC3)cn2cc1C(=O)Nc1cccc(C(F)F)n1 | 21 mL/min/kg | – | 81 mL/min/kg | – | 0.25 nM | – | – | 29 mL/min/kg | 28 mL/min/kg | – |
| CC(C)Oc1cc2nc(C3CCOCC3)cn2cc1NC(=O)c1cccc(C(F)F)n1 | 30 mL/min/kg | – | 61 mL/min/kg | 1788 mL/min/kg | 0.2 nM | 0.4 | 22 mL/min/kg | 37 mL/min/kg | 75 mL/min/kg | – |
| Cc1cc(NC(=O)c2cccc(C(F)F)n2)cn2cc(C3CCOCC3)nc12 | 11 mL/min/kg | – | 26 mL/min/kg | 227 mL/min/kg | 130 nM | 0.7 | 20 mL/min/kg | 12 mL/min/kg | 16 mL/min/kg | – |
| Cc1cnc2c(NC(=O)c3cn4cc(C56COC(C)(C5)C6)nc4c(F)c3OC(C)C)cnn2c1 | – | – | – | 28 mL/min/kg | – | 0.7 | 2.6 mL/min/kg | – | – | logD [9]: 2.5; IC50 [24]: > 60000 nM |
| Cc1cc2nc(C3CCOCC3)cn2cc1NC(=O)c1cccc(C(F)F)n1 | < 5 mL/min/kg | – | 20 mL/min/kg | 149 mL/min/kg | 150 nM | 1 | 16 mL/min/kg | 36 mL/min/kg | 18 mL/min/kg | – |
| CCOc1cc2nc(C(C)(C)O)cn2cc1NC(=O)c1cccc(C(F)F)n1 | < 4.7 mL/min/kg | 5.5 | < 10.7 mL/min/kg | – | – | – | – | – | – | – |
| CC(C)Oc1cc2nc(C34COC(C)(C3)C4)cn2cc1C(=O)Nc1cnn2cccnc12 | – | – | – | 143 mL/min/kg | – | 0.1 | 11 mL/min/kg | – | – | logD [9]: 2.1; IC50 [10]: > 30000 nM |
| COc1cc(NC(=O)c2cccc(C(F)(F)F)n2)cn2cc(C3CCOCC3)nc12 | < 5 mL/min/kg | – | 20 mL/min/kg | 45 mL/min/kg | – | 0.2 | 10 mL/min/kg | < 3 mL/min/kg | 8 mL/min/kg | – |
| CCOc1cc2nc(C3CC3)cn2cc1NC(=O)c1cccc(C(F)F)n1 | 20 mL/min/kg | 0.4 | 145 mL/min/kg | – | – | – | – | – | – | – |
